Results: patent US20250019387A1 (Frontier Medicines Corporation, priority 0001, published 2025)

molecular target: KRAS G12C and cRAF (Ras-binding domain) interaction (Homo sapiens (Human), UniProt P01116, C118S/C51S/C80L/G12C); experiment: Inhibition of KRAS G12C and cRAF binding (AlphaScreen); conditions: GMPPNP-loaded KRAS G12C, 19-20 hours incubation with compound; read-out: IC50 (Inhibition of KRAS G12C and cRAF Binding)
Procedure, shortened: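 Compounds (DMSO) preincubated 19-20 h at room temperature, then RBD with streptavidin donor and glutathione acceptor beads added in 25 mM Hepes pH 7.4, 150 mM NaCl, 5 mM MgCl2, 0.01% Triton X-100, 2% DMSO for 60-90 min. Emission 570 nm (excitation 680 nm); IC50 by 4-parameter fit. Counter-screen used biotin-AviTag-GST instead of RBD.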

Sequence of KRAS G12C and cRAF (Ras-binding domain) interaction (P01116 other isoform, or with tags, fused parts or gaps G12C/C51S/C80L/C118S): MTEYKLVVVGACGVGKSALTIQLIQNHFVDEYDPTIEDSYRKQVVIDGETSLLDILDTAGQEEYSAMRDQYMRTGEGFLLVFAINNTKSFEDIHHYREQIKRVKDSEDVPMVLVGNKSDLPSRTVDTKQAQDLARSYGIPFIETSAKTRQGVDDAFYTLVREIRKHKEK

IC50 | SMILES
10 to 100 nM | COC(=O)/C=C/C(=O)NCCN(C)c1nc(OC[C@@H]2CCCN2C)nc2c1CCN(c1cccc3ccc(F)c(Cl)c13)C2 [Example 1, methyl(S,E)-4-((2-((7-(8-chloro-7-fluoronaphthalen-1-yl)-2-((1-methylpyrrolidin-2-yl)methoxy)-5,6,7,8-tetrahydropyrido[3,4-d]pyrimidin-4-yl)(methyl)amino)ethyl)amino)-4-oxobut-2-enoate]
10 to 100 nM | COC(=O)/C=C/C(=O)N1CCC(N(C)c2nc(OC[C@@H]3CCCN3C)nc3c2CCN(c2cccc4ccc(F)c(Cl)c24)C3)C1 (stereo partly drawn) [Example 2, methyl(E)-4-(3-((7-(8-chloro-7-fluoronaphthalen-1-yl)-2-(((S)-1-methylpyrrolidin-2-yl)methoxy)-5,6,7,8-tetrahydropyrido[3,4-d]pyrimidin-4-yl)(methyl)amino)pyrrolidin-1-yl)-4-oxobut-2-enoate]
10 to 100 nM | COC(=O)/C=C/C(=O)N1CC[C@@H](N(C)c2nc(OC[C@@H]3CCCN3C)nc3c2CCN(c2cccc4ccc(F)c(Cl)c24)C3)C1 [Example 3, methyl(E)-4-((R)-3-((7-(8-chloro-7-fluoronaphthalen-1-yl)-2-(((S)-1-methylpyrrolidin-2-yl)methoxy)-5,6,7,8-tetrahydropyrido[3,4-d]pyrimidin-4-yl)(methyl)amino)pyrrolidin-1-yl)-4-oxobut-2-enoate]
> 500 nM | COC(=O)/C=C/C(=O)N1C[C@@H](N(C)c2nc(OC[C@@H]3CCCN3C)nc3c2CCN(c2cccc4cccc(Cl)c24)C3)C[C@@H]1C [Example 4, methyl(E)-4-((2S,4S)-4-((7-(8-chloronaphthalen-1-yl)-2-(((S)-1-methylpyrrolidin-2-yl)methoxy)-5,6,7,8-tetrahydropyrido[3,4-d]pyrimidin-4-yl)(methyl)amino)-2-methylpyrrolidin-1-yl)-4-oxobut-2-enoate]
> 500 nM | COC/C=C/C(=O)N1CCC(N(C)c2nc(OC[C@@H]3CCCN3C)nc3c2CCN(c2cccc4cccc(Cl)c24)C3)C1 (stereo partly drawn) [Example 5, (E)-1-(3-((7-(8-chloronaphthalen-1-yl)-2-(((S)-1-methylpyrrolidin-2-yl)methoxy)-5,6,7,8-tetrahydropyrido[3,4-d]pyrimidin-4-yl)(methyl)amino)pyrrolidin-1-yl)-4-methoxybut-2-en-1-one]
10 to 100 nM | COC(=O)/C=C/C(=O)N1CCC(N(C)c2nc(OC[C@@H]3CCCN3C)nc3c2CCN(c2cccc4cccc(Cl)c24)C3)C1 (stereo partly drawn) [Example 6, methyl(E)-4-(3-((7-(8-chloronaphthalen-1-yl)-2-(((S)-1-methylpyrrolidin-2-yl)methoxy)-5,6,7,8-tetrahydropyrido[3,4-d]pyrimidin-4-yl)(methyl)amino)pyrrolidin-1-yl)-4-oxobut-2-enoate]
> 500 nM | COC(=O)/C=C\C(=O)N1CCC(N(C)c2nc(OC[C@@H]3CCCN3C)nc3c2CCN(c2cccc4cccc(Cl)c24)C3)C1 (stereo partly drawn) [Example 7, methyl (Z)-4-(3-((7-(8-chloronaphthalen-1-yl)-2-(((S)-1-methylpyrrolidin-2-yl)methoxy)-5,6,7,8-tetrahydropyrido[3,4-d]pyrimidin-4-yl)(methyl)amino)pyrrolidin-1-yl)-4-oxobut-2-enoate]
100 to 500 nM | CN(c1nc(OC[C@@H]2CCCN2C)nc2c1CCN(c1cccc3cccc(Cl)c13)C2)C1CCN(C(=O)/C=C/C(=O)O)C1 (stereo partly drawn) [Example 8, (E)-4-(3-((7-(8-chloronaphthalen-1-yl)-2-(((S)-1-methylpyrrolidin-2-yl)methoxy)-5,6,7,8-tetrahydropyrido[3,4-d]pyrimidin-4-yl)(methyl)amino)pyrrolidin-1-yl)-4-oxobut-2-enoic acid]
< 10 nM | CN1CCC[C@H]1COc1nc2c(c(N(C)[C@@H]3CCN(C(=O)/C=C/S(C)(=O)=O)C3)n1)CCN(c1cccc3cccc(Cl)c13)C2 [Example 9, (E)-1-((R)-3-((7-(8-chloronaphthalen-1-yl)-2-(((S)-1-methylpyrrolidin-2-yl)methoxy)-5,6,7,8-tetrahydropyrido[3,4-d]pyrimidin-4-yl)(methyl)amino)pyrrolidin-1-yl)-3-(methylsulfonyl)prop-2-en-1-one]
10 to 100 nM | COC(=O)/C=C/C(=O)N1CC[C@@H](N(C)c2nc(OC[C@@H]3CCCN3C)nc3c2CCN(c2cccc4cccc(Cl)c24)C3)C1 [Example 10, methyl(E)-4-((R)-3-((7-(8-chloronaphthalen-1-yl)-2-(((S)-1-methylpyrrolidin-2-yl)methoxy)-5,6,7,8-tetrahydropyrido[3,4-d]pyrimidin-4-yl)(methyl)amino)pyrrolidin-1-yl)-4-oxobut-2-enoate]
10 to 100 nM | CC(C)OC(=O)/C=C/C(=O)N1CC[C@@H](N(C)c2nc(OC[C@@H]3CCCN3C)nc3c2CCN(c2cccc4cccc(Cl)c24)C3)C1 [Example 11, isopropyl(E)-4-((R)-3-((7-(8-chloronaphthalen-1-yl)-2-(((S)-1-methylpyrrolidin-2-yl)methoxy)-5,6,7,8-tetrahydropyrido[3,4-d]pyrimidin-4-yl)(methyl)amino)pyrrolidin-1-yl)-4-oxobut-2-enoate]
> 500 nM | CCN(CCNC(=O)/C=C/C(=O)OC)c1nc(OC[C@@H]2CCCN2C)nc2c1CCN(c1cccc3cccc(Cl)c13)C2 [Example 12, methyl(S,E)-4-((2-((7-(8-chloronaphthalen-1-yl)-2-((1-methylpyrrolidin-2-yl)methoxy)-5,6,7,8-tetrahydropyrido[3,4-d]pyrimidin-4-yl)(ethyl)amino)ethyl)amino)-4-oxobut-2-enoate]
10 to 100 nM | COC(=O)/C=C/C(=O)NCCN(C)c1nc(OCC23CCCN2CCC3)nc2c1CCN(c1cccc3cccc(Cl)c13)C2 [Example 13, Methyl(E)-4-((2-((7-(8-chloronaphthalen-1-yl)-2-((tetrahydro-1H-pyrrolizin-7a(5H)-yl)methoxy)-5,6,7,8-tetrahydropyrido[3,4-d]pyrimidin-4-yl)(methyl)amino)ethyl)amino)-4-oxobut-2-enoate]
> 500 nM | COC(=O)/C=C/C(=O)NC1CCN(c2nc(OC[C@@H]3CCCN3C)nc3c2CCN(c2cccc4cccc(Cl)c24)C3)C1 (stereo partly drawn) [Example 14, methyl(E)-4-((1-(7-(8-chloronaphthalen-1-yl)-2-(((S)-1-methylpyrrolidin-2-yl)methoxy)-5,6,7,8-tetrahydropyrido[3,4-d]pyrimidin-4-yl)pyrrolidin-3-yl)amino)-4-oxobut-2-enoate]
< 10 nM | CN1CCC[C@H]1COc1nc2c(c(N(C)[C@H]3CCN(C(=O)/C=C/S(C)(=O)=O)C3)n1)CCN(c1cccc3cccc(Cl)c13)C2 [Example 15, (E)-1-((S)-3-((7-(8-chloronaphthalen-1-yl)-2-(((S)-1-methylpyrrolidin-2-yl)methoxy)-5,6,7,8-tetrahydropyrido[3,4-d]pyrimidin-4-yl)(methyl)amino)pyrrolidin-1-yl)-3-(methylsulfonyl)prop-2-en-1-one]
10 to 100 nM | COC(=O)/C=C/C(=O)N1CC(CN(C)c2nc(OC[C@@H]3CCCN3C)nc3c2CCN(c2cccc4cccc(Cl)c24)C3)C1 [Example 16, methyl(S,E)-4-(3-(((7-(8-chloronaphthalen-1-yl)-2-((1-methylpyrrolidin-2-yl)methoxy)-5,6,7,8-tetrahydropyrido[3,4-d]pyrimidin-4-yl)(methyl)amino)methyl)azetidin-1-yl)-4-oxobut-2-enoate]
10 to 100 nM | COC(=O)/C=C/C(=O)N1C[C@H](N(C)c2nc(OC[C@@H]3CCCN3C)nc3c2CCN(c2cccc4cccc(Cl)c24)C3)C[C@H]1C [Example 17, methyl(E)-4-((2R,4R)-4-((7-(8-chloronaphthalen-1-yl)-2-(((S)-1-methylpyrrolidin-2-yl)methoxy)-5,6,7,8-tetrahydropyrido[3,4-d]pyrimidin-4-yl)(methyl)amino)-2-methylpyrrolidin-1-yl)-4-oxobut-2-enoate]
< 10 nM | CC(C)OC(=O)/C=C/C(=O)N1CC[C@@H](N(C)c2nc(OCC34CCCN3CCC4)nc3c2CCN(c2cccc4cccc(Cl)c24)C3)C1 [Example 18, isopropyl(R,E)-4-(3-((7-(8-chloronaphthalen-1-yl)-2-((tetrahydro-1H-pyrrolizin-7a(5H)-yl)methoxy)-5,6,7,8-tetrahydropyrido[3,4-d]pyrimidin-4-yl)(methyl)amino)pyrrolidin-1-yl)-4-oxobut-2-enoate]
10 to 100 nM | C=CC(=O)N1CC[C@@H](N(C)c2nc(OCC34CCCN3CCC4)nc3c2CCN(c2cccc4cccc(Cl)c24)C3)C1 [Example 19, (R)-1-(3-((7-(8-chloronaphthalen-1-yl)-2-((tetrahydro-1H-pyrrolizin-7a(5H)-yl)methoxy)-5,6,7,8-tetrahydropyrido[3,4-d]pyrimidin-4-yl)(methyl)amino)pyrrolidin-1-yl)prop-2-en-1-one]
10 to 100 nM | COC(=O)/C=C/C(=O)N1C[C@H](N(C)c2nc(OCC34CCCN3CCC4)nc3c2CCN(c2cccc4cccc(Cl)c24)C3)C[C@@H]1C [Example 20, methyl(E)-4-((2S,4R)-4-((7-(8-chloronaphthalen-1-yl)-2-((tetrahydro-1H-pyrrolizin-7a(5H)-yl)methoxy)-5,6,7,8-tetrahydropyrido[3,4-d]pyrimidin-4-yl)(methyl)amino)-2-methylpyrrolidin-1-yl)-4-oxobut-2-enoate]
> 500 nM | CN(CCNC(=O)/C=C/C(=O)O)c1nc(OC[C@@H]2CCCN2C)nc2c1CCN(c1cccc3cccc(Cl)c13)C2 [Example 21, (S,E)-4-((2-((7-(8-chloronaphthalen-1-yl)-2-((1-methylpyrrolidin-2-yl)methoxy)-5,6,7,8-tetrahydropyrido[3,4-d]pyrimidin-4-yl)(methyl)amino)ethyl)amino)-4-oxobut-2-enoic acid]
